molecular target: T1, recombinant human mPGES-1 (Homo sapiens, UniProt O14684); test: mPGES-1 inhibition test (microsomes, PGH2 substrate, HTRF detection of PGE2); assay type: biochemical; conditions: inhibition of mPGES-1 at 10 μM
T1 construct: made in house; host or cells: Rosetta E. coli (microsomal/membrane fraction)
T1 sequence (O14684 1-152): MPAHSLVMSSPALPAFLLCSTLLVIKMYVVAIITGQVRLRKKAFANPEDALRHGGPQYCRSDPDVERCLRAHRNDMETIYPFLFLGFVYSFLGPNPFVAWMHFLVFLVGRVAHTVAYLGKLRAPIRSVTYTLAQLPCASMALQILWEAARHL
In short: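 First, inhibitor is incubated with microsomal enzyme from Rosetta E. coli in KPi pH 7.4 containing 2.5 mM GSH for 25 minutes at room temperature. Next, PGH2 is added and stopped after one minute with FeCl2 stop solution. Finally, diluted samples undergo HTRF PGE2 quantification.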

Row | SMILES | inhibition at 10 µM [%]
1 | Cn1c(Nc2cc(C(N)=O)ccc2Cl)nc2cc(C(=O)Nc3ccc(Br)cc3)ccc21 [Example 537, N-(4-Bromophenyl)-2-(5-carbamoyl-2-chlorophenylamino)-1-methyl-1H-benzimidazole-5-carboxamide] | 99
2 | C#Cc1ccccc1Nc1nc2cc(C(=O)Nc3ccc(Br)cc3)ccc2n1C [Example 538, N-(4-Bromophenyl)-2-(2-ethynylphenylamino)-1-methyl-1H-benzimidazole-5-carboxamide] | 85
3 | CNC(=O)c1ccc(Nc2nc3cc(C(=O)Nc4ccc(Br)cc4)ccc3n2C)c(Cl)c1 [Example 540, N-(4-Bromophenyl)-2-(2-chloro-4-(methylcarbamoyl)-phenylamino)-1-methyl-1H-benzimidazole-5-carboxamide] | 44
4 | Cn1c(Nc2ccc(C(N)=O)cc2Cl)nc2cc(C(=O)Nc3ccc(Br)cc3)ccc21 [Example 543, N-(4-Bromophenyl)-2-(4-carbamoyl-2-chlorophenylamino)-1-methyl-1H-benzimidazole-5-carboxamide] | 91
5 | Cn1c(Nc2ccc(C(F)(F)F)cc2Cl)nc2cc(C(=O)Nc3ccc(Br)cc3)ccc21 [Example 556, N-(4-Bromophenyl)-2-(2-chloro-4-trifluoromethyl-phenylamino)-1-methyl-1H-benzimidazole-5-carboxamide] | 74
6 | O=C(Nc1ccc(Br)cc1)c1ccc2[nH]c(Nc3c(Cl)cccc3OC(F)(F)F)nc2c1 [Example 557, N-(4-Bromophenyl)-2-(2-chloro-6-(trifluoromethoxy)phenylamino)-1H-benzimidazole-5-carboxamide] | 69
7 | CN(C)C(=O)c1ccc(Nc2nc3cc(C(=O)Nc4ccc(Br)cc4)ccc3n2C)c(Cl)c1 [Example 562, N-(4-Bromophenyl)-2-(2-chloro-4-(dimethylcarbamoyl)-phenylamino)-1-methyl-1H-benzimidazole-5-carboxamide] | 97
8 | CC(C)NC(=O)c1cc(Br)c2[nH]c(Nc3c(Cl)cccc3Cl)nc2c1 [Example 570, 7-Bromo-N-isopropyl-2-(2,6-dichlorophenylamino)-1H-benzimidazole-5-carboxamide] | 84
9 | Cn1c(Nc2cc(C(=O)O)ccc2Cl)nc2cc(C(=O)Nc3ccc(Br)cc3)ccc21 [Example 573, 3-(5-(4-Bromophenylcarbamoyl)-1-methyl-1H-benzimidazol-2-yl-amino)-4-chlorobenzoic acid] | 60
10 | CNC(=O)c1ccc(Cl)c(Nc2nc3cc(C(=O)Nc4ccc(Br)cc4)ccc3n2C)c1 [Example 574, N-(4-Bromophenyl)-2-(2-chloro-5-(methylcarbamoyl)-phenylamino)-1-methyl-1H-benzimidazole-5-carboxamide] | 56
11 | CN(C)c1cc(C(F)(F)F)cc(NC(=O)c2cc3nc(Nc4c(Cl)cc(F)cc4Cl)[nH]c3cc2OCC(F)(F)F)n1 [Example 575, 2-(2,6-Dichloro-4-fluoro-phenylamino)-N-(6-dimethylamino-4-trifluoromethyl-pyridin-2-yl)-6-(2,2,2-trifluorethoxy)-1H-benzimidazole-5-carboxamide] | 82
12 | COc1cc2[nH]c(Nc3c(Cl)cc(F)cc3Cl)nc2cc1C(=O)N[C@H]1CC[C@H](C(F)(F)F)CC1 [Example 579, 2-(2,6-Dichloro-4-fluoro-phenylamino)-6-methoxy-N-(trans-4-trifluoromethyl-cyclohex-1-yl)-1H-benzimidazole-5-carboxamide] | 100
13 | COc1cc2[nH]c(Nc3c(Cl)cc(F)cc3Cl)nc2cc1C(=O)NCc1ncccc1C(F)(F)F [Example 580, 2-(2,6-Dichloro-4-fluoro-phenylamino)-6-methoxy-N-((3-trifluoromethyl-pyridin-2-yl)-methyl)-1H-benzimidazole-5-carboxamide] | 100
14 | COc1cc2[nH]c(Nc3c(Cl)cc(F)cc3Cl)nc2cc1C(=O)Nc1ccc(Br)cc1 [Example 581, 2-(2,6-Dichloro-4-fluoro-phenylamino)-6-methoxy-N-(4-bromo-phenyl)-1H-benzimidazole-5-carboxamide] | 100

Other lines, results leading:

Row | inhibition at 10 µM [%] | SMILES
15 | 89 | Cn1c(Nc2c(Cl)cccc2Cl)nc2cc(C(=O)NCc3ncccc3F)c(F)cc21 [Example 536, 2-(2,6-Dichlorophenylamino)-6-fluoro-N-((3-fluoropyridin-2-yl)methyl)-1-methyl-1H-benzimidazole-5-carboxamide]
16 | 94 | N#Cc1ccnc(NC(=O)c2ccc3[nH]c(Nc4c(Cl)cccc4Cl)nc3c2)c1 [Example 539, N-(4-Cyanopyridin-2-yl)-2-(2,6-dichlorophenylamino)-1H-benzimidazole-5-carboxamide]
17 | 97 | Cn1c(Nc2c(Cl)cc(F)cc2Cl)nc2cc(C(=O)NCc3ncccc3C(F)(F)F)ccc21 [Example 542, 2-(2,6-Dichloro-4-fluorophenylamino)-1-methyl-N-((3-trifluoromethyl-pyridin-2-yl)methyl)-1H-benzimidazole-5-carboxamide]
18 | 89 | CCc1ccc(C)nc1NC(=O)c1ccc2c(c1)nc(Nc1c(Cl)cccc1Cl)n2C [Example 545, 2-(2,6-Dichlorophenylamino)-N-(3-ethyl-6-methylpyridin-2-yl)-1-methyl-1H-benzimidazole-5-carboxamide]
19 | 85 | Cn1c(Nc2c(F)cccc2Cl)nc2cc(C(=O)NCC3CC3)c(F)cc21 [Example 546, 2-(2-Chloro-6-fluorophenylamino)-N-(cyclopropylmethyl)-6-fluoro-1-methyl-1H-benzimidazole-5-carboxamide]
20 | 93 | Cn1c(Nc2c(Cl)cccc2Cl)nc2cc(C(=O)NCc3ccccn3)c(F)cc21 [Example 548, 2-(2,6-Dichlorophenylamino)-6-fluoro-1-methyl-N-(pyridin-2-ylmethyl)-1H-benzimidazole-5-carboxamide]
21 | 94 | CN(C)c1cccc(F)c1Nc1nc2cc(C(=O)Nc3ccc(Br)cc3)ccc2n1C [Example 551, N-(4-Bromophenyl)-2-(2-dimethylamino-6-fluorophenylamino)-1-methyl-1H-benzimidazole-5-carboxamide]
22 | 84 | Cn1c(Nc2c(Cl)cccc2Cl)nc2cc(C(=O)Nc3cc(N4CCCC4)ccn3)c(F)cc21 [Example 554, 2-(2,6-Dichlorophenylamino)-6-fluoro-1-methyl-N-(4-(pyrrolidin-1-yl)-pyridin-2-yl)-1H-benzimidazole-5-carboxamide]
23 | 77 | CCc1ccc(C)nc1NC(=O)c1ccc2[nH]c(Nc3c(Cl)cccc3Cl)nc2c1 [Example 558, 2-(2,6-Dichlorophenylamino)-N-(3-ethyl-6-methylpyridin-2-yl)-1H-benzimidazole-5-carboxamide]
24 | 77 | Cn1c(Nc2c(Cl)cccc2Cl)nc2cc(C(=O)NC3CCN(C4CC4)CC3)c(F)cc21 [Example 561, N-(1-Cyclopropylpiperidin-4-yl)-2-(2,6-dichlorophenylamino)-6-fluoro-1-methyl-1H-benzimidazole-5-carboxamide]
25 | 75 | Cn1c(CNC(=O)c2cc3nc(Nc4c(Cl)cccc4Cl)n(C)c3cc2F)nc2ccccc21 [Example 563, 2-(2,6-Dichlorophenylamino)-6-fluoro-1-methyl-N-((1-methyl-1H-benzo[d]imidazol-2-yl)methyl)-1H-benzimidazole-5-carboxamide]
26 | 70 | Cn1c(Nc2c(Cl)cccc2Cl)nc2cc(C(=O)NCc3cn4cc(Cl)ccc4n3)c(F)cc21 [Example 564, N-((6-Chloroimidazo[1,2-a]pyridin-2-yl)methyl)-2-(2,6-dichlorophenylamino)-6-fluoro-1-methyl-1H-benzimidazole-5-carboxamide]
27 | 60 | Cn1c(Nc2c(Cl)cccc2Cl)nc2cc(C(=O)NCc3c(C(F)(F)F)ccc[n+]3[O-])c(F)cc21 [Example 568, 2-((2-(2,6-Dichlorophenylamino)-6-fluoro-1-methyl-1H-benzimidazole-5-carboxamido)methyl)-3-trifluoromethyl-pyridine 1-oxide]
28 | 81 | COc1ccnc(CNC(=O)c2cc3nc(Nc4c(Cl)cccc4Cl)n(C)c3cc2F)c1 [Example 569, 2-(2,6-Dichlorophenylamino)-6-fluoro-N-((4-methoxypyridin-2-yl)methyl)-1-methyl-1H-benzimidazole-5-carboxamide]
29 | 86 | COCCOc1cccc(NC(=O)c2ccc3[nH]c(Nc4c(Cl)cccc4Cl)nc3c2)n1 [Example 571, 2-(2,6-Dichlorophenylamino)-N-(6-(2-methoxyethoxy)pyridin-2-yl)-1H-benzimidazole-5-carboxamide]
30 | 45 | CC(C)c1ccccc1Nc1nc2cc(C(=O)Nc3ccc(Br)cc3)ccc2n1C [Example 572, N-(4-Bromophenyl)-2-(2-isopropylphenylamino)-1-methyl-1H-benzimidazole-5-carboxamide]
31 | 100 | COc1cc2[nH]c(Nc3c(Cl)cccc3Cl)nc2cc1C(=O)NCc1ncccc1C [Example 577, 2-(2,6-Dichlorophenylamino)-6-methoxy-N-((3-methylpyridin-2-yl)-methyl)-1H-benzimidazole-5-carboxamide]
32 | 100 | Cn1c(Nc2c(Cl)cc(F)cc2Cl)nc2cc(C(=O)Nc3ccc(Br)cc3)ccc21 [Example 578, 2-(2,6-Dichloro-4-fluoro-phenylamino)-N-(4-bromo-phenyl)-1-methyl-1H-benzimidazole-5-carboxamide]

same assay, conditions: inhibition of mPGES-1 at 10 μM; 10 µM

Row | SMILES | % inhib. [%]
33 | Cn1c(Nc2c(Cl)cccc2Cl)nc2cc(C(=O)NCc3ccccn3)c(F)cc21 [Example 552, 2-(2,6-Dichlorophenylamino)-6-fluoro-1-methyl-N-(pyridin-2-ylmethyl)-1H-benzimidazole-5-carboxamide] | 77

— patent US8916599B2, “1H-benz imidazole-5-carboxamides as anti-inflammatory agents” (Orexo AB, priority 2008, dated 2014)
